The text below walks through data of ChEMBL document CHEMBL3352417, “Confronting the challenges of discovery of novel antibacterial agents” (Bioorg Med Chem Lett, 2014).

Each structure is given as a SMILES string. ≈ marks a conversion by molar mass, not a printed value.

Assay [1] can be described thus: Inhibition of Enterococcus faecalis ParE.
Assay [2] is described as follows: Inhibition of Enterococcus faecalis DNA gyrase subunit B.
Assay [3] deals with Voltage-gated inwardly rectifying potassium channel KCNH2 (Homo sapiens, UniProt Q12809). The assay is described as follows: Inhibition of human ERG.
For the next assay, the system named is Staphylococcus aureus. The assay is described as follows: Antimicrobial activity against Staphylococcus aureus. It is filed as functional.
For a further assay, the system named is Streptococcus pneumoniae. The assay is described as follows: Antimicrobial activity against Streptococcus pneumoniae. The class given is functional.
The nature of assay [4]: Inhibition of beta-lactamase (unknown origin).

Sequence of Voltage-gated inwardly rectifying potassium channel KCNH2 (Q12809 whole entry): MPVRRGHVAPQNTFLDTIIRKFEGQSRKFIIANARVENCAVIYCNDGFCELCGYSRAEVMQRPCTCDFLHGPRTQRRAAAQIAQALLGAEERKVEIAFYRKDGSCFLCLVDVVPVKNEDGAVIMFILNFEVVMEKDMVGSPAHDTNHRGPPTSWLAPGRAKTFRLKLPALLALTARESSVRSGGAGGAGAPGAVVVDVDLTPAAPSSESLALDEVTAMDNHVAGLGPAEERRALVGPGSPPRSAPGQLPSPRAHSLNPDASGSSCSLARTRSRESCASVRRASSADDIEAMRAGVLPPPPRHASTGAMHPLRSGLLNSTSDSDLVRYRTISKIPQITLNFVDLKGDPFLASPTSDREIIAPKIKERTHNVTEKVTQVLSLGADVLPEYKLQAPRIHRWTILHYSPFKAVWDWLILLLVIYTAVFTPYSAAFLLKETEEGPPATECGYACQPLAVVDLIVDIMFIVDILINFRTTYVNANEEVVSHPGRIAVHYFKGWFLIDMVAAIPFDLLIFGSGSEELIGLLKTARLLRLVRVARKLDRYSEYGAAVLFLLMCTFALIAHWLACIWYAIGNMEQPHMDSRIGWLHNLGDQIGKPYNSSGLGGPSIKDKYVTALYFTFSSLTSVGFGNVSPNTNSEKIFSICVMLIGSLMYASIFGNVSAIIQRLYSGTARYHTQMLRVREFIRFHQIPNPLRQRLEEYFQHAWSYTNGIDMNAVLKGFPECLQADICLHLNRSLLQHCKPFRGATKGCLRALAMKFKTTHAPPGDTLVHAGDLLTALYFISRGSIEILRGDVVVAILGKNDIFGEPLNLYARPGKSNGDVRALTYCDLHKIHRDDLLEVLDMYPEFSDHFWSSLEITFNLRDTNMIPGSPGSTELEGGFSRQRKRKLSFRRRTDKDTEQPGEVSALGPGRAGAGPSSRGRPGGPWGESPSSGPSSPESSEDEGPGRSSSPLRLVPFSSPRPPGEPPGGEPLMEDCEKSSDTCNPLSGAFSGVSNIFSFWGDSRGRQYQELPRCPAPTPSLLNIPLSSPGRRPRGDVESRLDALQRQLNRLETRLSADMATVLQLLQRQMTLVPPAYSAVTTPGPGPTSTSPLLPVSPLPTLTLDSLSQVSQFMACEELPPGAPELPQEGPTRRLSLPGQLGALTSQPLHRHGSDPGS

What is called IC50 is the point on the concentration scale where inhibition reaches its midpoint. As for `CNc1cc(F)cc2c1[nH]c1nc(Oc3cnc(C)nc3)nc(N3CC4[C@H](N)C[C@]4(C)C3)c12` (stereo partly specified), the IC50 in assay [1] and in assay [2] was less than 0.0003 µM in each case.

Broadly, the MIC90 is the lowest concentration that inhibits either 90% of growth or 90% of the strains tested, depending on the study. With `O=c1ccc2ncc(=O)n3c2n1C[C@H]3CN1CCC(NCc2cc3c(cn2)OCCC3)CC1` [GEPOTIDACIN], half-maximal inhibition in assay [3] (IC50) required 1400 µM. For the same compound, the figures for the MIC90 with Staphylococcus aureus and against Streptococcus pneumoniae were 0.5 µg/mL (≈ 1.11 µM) and 0.25 µg/mL (≈ 0.557 µM), respectively.

For `O=C(O)C[C@@H]1CC[C@H](NC(=O)Cc2cccs2)B(O)O1` [VABORBACTAM], the half-inhibitory concentration (IC50) in assay [4] was 0.009 µM.
